Test results taken from patent publication US11400104B2, “Skeletal removal of bisphosphonates” (The Regents of the University of California, priority 2016, dated 2022).

Test: hydroxyapatite (HAP) binding affinity, relative retention times normalized to RIS
Settings: FIG. 7
Method: FIG. 7 is a bar graph showing hydroxyapatite (HAP) binding affinity of Zoledronate (ZOL), ROX-RIS, 5-FAM-ZOL, and AF647-ZOL. Relative retention times were normalized to RIS.
Hydroxyapatite assays indicate that the FL-BPs generally retain substantial affinity for bone mineral that reflect the affinity of the BP component and to a lesser extent, the affinity of the conjugated fluorophore. Hydroxyapatite (Macro-Prep® Ceramic hydroxyapatite Type II […]) was obtained from Bio-Rad Laboratories, Inc. Hercules, Calif. Accurately weighed hydroxyapatite powder (1.4-1.6 mg) was suspended in a 4 mL clear vial containing the appropriate volume of assay buffer (0.05% (wt/vol) Tween20, 10 μM EDTA and 100 mM HEPES pH=7.4) for 3 hours. Hydroxyapatite was then incubated with increasing amounts of FAM-BP and ROX-BP (0, 25, 50, 100, 200, and 300 μM). Samples were gently shaken for 3 hours at 37° C. in appropriate volume of assay buffer (0.05% (wt/vol) Tween20, 10 μM EDTA and 100 mM HEPES pH=7.4). Subsequent to the equilibrium period, the vials were centrifuged at 10,000 rpm for 5 minutes to separate the solids and the supernatant. 0.3 mL of the supernatant was collected and the equilibrium solution concentration is measured by using Shimadzu UV-VIS spectrometer. For the calibration series, FL-BP probe standards were prepared by serial dilution from the stock solution with the same isotherm buffer to give the range from 0 to 400 μM. Calibration curves were constructed using standard solutions of the target FL-BPs. Fluorescent emission can also be used to calculate the binding parameters. Nonspecific binding was measured with a similar procedure in the absence of hydroxyapatite as control. Binding parameters (Kd and Bmax, represent the equilibrium dissociate constant and maximum number of binding sites, respectively) were calculated using the PRISM program (Graphpad, USA). The binding parameters of each compound was measured in 5 independent experiments. […]

With CC1(C)C(C=CC=CC=C2N(CCCS(=O)(=O)O)c3ccc(S(=O)(=O)O)cc3C2(C)CCCCCC(=O)NCC(O)C[n+]2ccn(CC(O)(P(=O)(O)O)P(=O)(O)O)c2)=[N+](CCCS(=O)(=O)O)c2ccc(S(=O)(=O)O)cc21 (stereo not shown) [AF647-ZOL] the “influence of the fluorophore on hydroxyapatite affinity” value was “small reduction”.
